Experiment [1] has as its system Ca^+2 -calmodulin dependent myosin light chain phosphorylation. Put plainly: inhibition of Ca^+2-calmodulin dependent myosin light chain phosphorylation (MLCP). Type of experiment: biochemical. The protocol:
(§1) The data reported herein was obtained at a six minute time-point rather than the 1.5, 5 and 12 minute time points indicated in the superprecipitation assay of the Silver et al. paper.
(§2) The following examples illustrate the preparation of a representative number of compounds of this invention. After each example, and Ca^+2 antagonist activity of the compound is presented in terms of percent relaxation of aortic tissue (P.R.) at 10^-5 M concentration. […] Inhibition of superprecipitation (Antag. of Actin-Myosin interaction) is expressed as percent inhibition (mean±standard error of the mean for at least 3 separate experiments) at a compound concentration. In the same manner, inhibition of myosin light chain phosphorylation (Antag. of MLCP) is expressed as a percent inhibition at a compound concentration. Similarly, the antihypertensive activity is reported in terms of millimeters mercury (mmHg) systolic blood pressure (B.P.) reduction at the stated time post 50 mg/kg oral dosing or other dosing as indicated.

Experiment [2] has as its system arterial actin-myosin interactions. Put plainly: inhibition of superprecipitation (antagonism of arterial actin-myosin interaction). Type of experiment: biochemical. The settings on record: six minute time-point, mean±SEM. The protocol: as §1, §2
Experiment [3] concerns spontaneously hypertensive rats. The experiment is described as follows: decrease in systolic blood pressure of spontaneously hypertensive rats. In kind it is in vivo, rat.

For the compound `CC1=C(C(=O)OCCOc2ccccc2)C(c2c(F)c(F)c(F)c(F)c2F)C2=C(CNCC2=O)N1` (racemic) [Example 2, 1,4,5,6,7,8-Hexahydro-2-methyl-5-oxo-4-(pentafluorophenyl)-1,7-naphthyridine-3-carboxylic acid 2-phenoxyethyl ester], the results for the “inhibition of myosin light chain phosphorylation (Antag. of MLCP)” value (“inhibition … (Antag. of MLCP)” for short) in experiment [1] (25 μM), in experiment [1] (50 μM) and in experiment [1] (100 μM) were 24±3%, 54±4% and 69±3%, respectively. The “inhibition of superprecipitation (Antag. of Actin-Myosin)” value (from here on “inhibition of superprecipitation”) in experiment [2] (25 μM) is reported as 28±2%; in experiment [2] (50 μM) it was 58±4%; in experiment [2] (100 μM), 72±2%. For the same compound, the “systolic blood pressure (B.P.) reduction” value in experiment [3] (10 mg/kg, 4 hours) is reported as -51 mmHg.

Regarding `CO[C@H](COC(=O)C1=C(C)NC2=C(C(=O)CNC2)C1c1c(F)c(F)c(F)c(F)c1F)c1ccccc1` (single isomer, unassigned) [Example 8 Diastereomer A, 1,4,5,6,7,8-Hexahydro-2-methyl-5-oxo-4(R or S-pentafluorophenyl)-1,7-naphthyridine-3-carboxylic acid (S)-2-methoxy-2-phenylethyl esters], the “inhibition … (Antag. of MLCP)” value in experiment [1] (50 μM) was 28%; in experiment [1] (100 μM), 63%. For the same compound, the “inhibition of superprecipitation” value in experiment [2] (50 μM) is listed as 28%; in experiment [2] (100 μM) it was 69%.

As for `CO[C@H](COC(=O)C1=C(C)NC2=C(C(=O)CNC2)C1c1c(F)c(F)c(F)c(F)c1F)c1ccccc1` (single isomer, unassigned) [Example 8 Diastereomer B, 1,4,5,6,7,8-Hexahydro-2-methyl-5-oxo-4(R or S-pentafluorophenyl)-1,7-naphthyridine-3-carboxylic acid (S)-2-methoxy-2-phenylethyl esters], the results for the “inhibition … (Antag. of MLCP)” value in experiment [1] (50 μM) and in experiment [1] (100 μM) were 34% and 62%, respectively. In addition, the “inhibition of superprecipitation” value in experiment [2] (50 μM) came to 30%; in experiment [2] (100 μM) it was 64%.

Consider `CC1=C(C(=O)OCCOc2ccccc2)C(c2c(F)c(F)c(F)c(F)c2F)C2=C(CNCC2=O)N1` (single isomer, unassigned; (-)) [Example 3, (-)-1,4,5,6,7,8-Hexahydro-2-methyl-5-oxo-4-(pentafluorophenyl)-1,7-naphthyridine-3-carboxylic acid 2-phenoxyethyl ester], for which the “inhibition … (Antag. of MLCP)” value in experiment [1] (50 μM) is listed as 57%; in experiment [1] (100 μM) it was 70%. The entries for the “inhibition of superprecipitation” value in experiment [2] (50 μM) and in experiment [2] (100 μM) were 65% and 76%, respectively.

Turning to `COC(COC(=O)C1=C(C)NC2=C(C(=O)CNC2)C1c1cccc(Cl)c1Cl)c1ccccc1` (stereo not drawn) [Example 1, 4-(2,3-Dichlorophenyl)-1,4,5,6,7,8-hexahydro-2-methyl-5-oxo-1,7-naphthyridine-3-carboxylic acid 2-methoxy-2-phenylethyl ester], the “inhibition … (Antag. of MLCP)” value in experiment [1] (25 μM) is reported as 38±3%; in experiment [1] (50 μM), 66%; in experiment [1] (100 μM), 76±2%. The “inhibition of superprecipitation” value came to 43±2% in experiment [2] (25 μM), 75±3% in experiment [2] (50 μM) and 83±3% in experiment [2] (100 μM). The “systolic blood pressure (B.P.) reduction” value in experiment [3] (50 mg/kg oral, 1.5 hours) is reported as -53 mmHg; in experiment [3] (50 mg/kg oral, 4 hours), -30 mmHg.

Consider `CO[C@@H](COC(=O)C1=C(C)NC2=C(C(=O)CNC2)C1c1c(F)c(F)c(F)c(F)c1F)c1ccccc1` (stereo partly drawn) [Example 6, 1,4,5,6,7,8-Hexahydro-2-methyl-5-oxo-4-(pentafluorophenyl)-1,7-naphthyridine-3-carboxylic acid (R)-2-methoxy-2-phenylethyl ester], for which the figures for the “inhibition … (Antag. of MLCP)” value in experiment [1] (50 μM) and in experiment [1] (100 μM) were 56% and 70%, respectively. The “inhibition of superprecipitation” value in experiment [2] (50 μM) is listed as 64%; in experiment [2] (100 μM) it was 74%. Moreover, the “systolic blood pressure (B.P.) reduction” value is -56 mmHg in experiment [3] (10 mg/kg, 1.5 hours) and -49 mmHg in experiment [3] (10 mg/kg, 4 hours).

With `COC(COC(=O)C1=C(C)NC2=C(C(=O)CNC2)C1c1c(F)cccc1Cl)c1ccccc1` (stereo not drawn) [Example 9, 4-(2-Chloro-6-fluorophenyl)-1,4,5,6,7,8-hexahydro-2-methyl-5-oxo-1,7-naphthyridine-3-carboxylic acid 2-methoxy-2-phenylethyl ester], in experiment [1] (100 μM), the “inhibition … (Antag. of MLCP)” value came out at 44%. The “inhibition of superprecipitation” value in experiment [2] (100 μM) came out at 40%. The “systolic blood pressure (B.P.) reduction” value in experiment [3] (50 mg/kg oral, 1.5 hours) is -37 mmHg; in experiment [3] (50 mg/kg oral, 4 hours), -14 mmHg.

As for `COC(COC(=O)C1=C(C)NC2=C(C(=O)CNC2)C1c1cccc(Cl)c1)c1ccccc1` (stereo not drawn) [Example 11, 4-(3-Chlorophenyl)-1,4,5,6,7,8-hexahydro-2-methyl-5-oxo-1,7 naphthyridine-3-carboxylic acid 2-methoxy-2-phenylethyl ester], the “inhibition … (Antag. of MLCP)” value in experiment [1] (100 μM) was 48%. Also, in experiment [2] (100 μM), the “inhibition of superprecipitation” value is reported as 53%. Besides, the “systolic blood pressure (B.P.) reduction” value in experiment [3] (50 mg/kg oral, 1.5 hours) is -29 mmHg; in experiment [3] (50 mg/kg oral, 4 hours) it was -38 mmHg.

Regarding `COC(COC(=O)C1=C(C)NC2=C(C(=O)CNC2)C1c1ccccc1C(F)(F)F)c1ccccc1` (stereo not drawn) [Example 12, 1,4,5,6,7,8-Hexahydro-2-methyl-5-oxo-4-[2-(trifluoromethyl)phenyl]-1,7-naphthyridine-3-carboxylic acid 2-methoxy-2-phenylethyl ester], the “inhibition … (Antag. of MLCP)” value in experiment [1] (100 μM) is given as 24%. The “inhibition of superprecipitation” value in experiment [2] (100 μM) is recorded as 30%. Besides, the “systolic blood pressure (B.P.) reduction” value in experiment [3] (25 mg/kg, 1.5 hours) is on record as -56 mmHg; in experiment [3] (25 mg/kg, 4 hours), -56 mmHg.

`CC1=C(C(=O)OC(C)COc2ccccc2)C(c2c(F)c(F)c(F)c(F)c2F)C2=C(CNCC2=O)N1` (stereo not drawn) [Example 13, 1,4,5,6,7,8-Hexahydro-2-methyl-5-oxo-4-(pentafluorophenyl)-1,7-naphthyridine-3-carboxylic acid 1-methyl-2-phenoxyethyl ester]: the results for the “inhibition … (Antag. of MLCP)” value in experiment [1] (25 μM) and in experiment [1] (100 μM) were 58% and 70%, respectively. Moreover, the “inhibition of superprecipitation” value came to 61% in experiment [2] (25 μM) and 78% in experiment [2] (100 μM). Further, the “systolic blood pressure (B.P.) reduction” value in experiment [3] (50 mg/kg oral, 1.5 hours) is given as -35 mmHg; in experiment [3] (50 mg/kg oral, 4 hours) it was -60 mmHg.

Consider `CC1=C(C(=O)OCC2COc3ccccc3O2)C(c2c(F)c(F)c(F)c(F)c2F)C2=C(CNCC2=O)N1` (stereo not drawn) [Example 14, 1,4,5,6,7,8-Hexahydro-2-methyl-5-oxo-4-(pentafluorophenyl)-1,7-naphthyridine-3-carboxylic acid 2,3-dihydro-1,4-benzodioxin-2-ylmethyl ester], for which the results for the “inhibition … (Antag. of MLCP)” value in experiment [1] (25 μM) and in experiment [1] (100 μM) were 59% and 76%, respectively. Moreover, the “inhibition of superprecipitation” value worked out at 65% in experiment [2] (25 μM) and 80% in experiment [2] (100 μM). For the same compound, the “systolic blood pressure (B.P.) reduction” value in experiment [3] (50 mg/kg oral, 1.5 hours) was -46 mmHg; in experiment [3] (50 mg/kg oral, 4 hours), -42 mmHg.
